Source: US20150056702A1, “METHOD AND KIT FOR CULTURING STEM CELLS” (China Medical University, priority 2013, published 2015)

How the values were obtained:
Assay type in all cases: cell-based, mouse
Sox2 = test: Real-time PCR, Sox2 gene expression in ES cells; conditions: for Sox2 gene expression level: ES cells, control group = 100%
Procedure: (§1) The following steps were conducted in order to culture ES cells: • (1) preparing a stem cell medium: DMEM+15% heat-inactivated FBS+NEAA (0.1 mM)+L-glutamine (2 mM)+β-mercaptoethanol (0.2 mM); • (2) preparing a BP-containing solution: dissolving BP into DMSO to form a BP-containing solution (100 mg/ml), and storing the solution at −20° C.; • (3) adding different amounts of the BP-containing solution in step (2) into the stem cell medium in step (1) to form different BP-containing mediums, wherein the amount of BP were about 5, 10, 20 or 40 μg per milliliter of the stem cell medium respectively (i.e. the experimental group mediums: BP5, BP10, BP20 and BP40); and • (4) using the BP-containing medium of in step (3) to culture a ES cell (retrieved from the embryos in the blastula stage of 129sv/J mice) at 37° C., 5% CO2 and 95% humidity on the feeder cells provided by Example 1.
(§2) An experimental group medium (BP5, BP10, BP20 or BP40) and a control group medium (without BP) were added respectively to perform the following steps. ES cells were cultured with an initial density of 1×10^4 per well in a 6-well culture dish. The medium was removed until the cells growth to be about 70 to 80% confluence, and then 1 ml TRIzol (Invitrogen) was added into each well. The cells were incubated for 5 minutes, and then was scraped by a spatula and placed into a 1.5 ml microtube to be lysed adequately. Chloroform (0.2 ml) was added into the microtubes. The mixture was shaken up and down for 15 seconds, and then incubated at room temperature for 2 to 3 minutes. Thereafter, the mixture was centrifuged at 12000 rpm at 4° C. for 15 minutes, and the supernatant was removed into another 1.5 ml microtube and isopropanol (0.5 ml) was added into the microtube with well mixing. The mixture was incubated at room temperature for 10 minutes and then centrifuged at 12000 rpm at 4° C. for 10 minutes. The supernatant was then removed. One ml of 70% ethanol containing DEPC.H2O was used to wash the remaining sediment. The sediment was centrifuged at 7500 rpm at 4° C. for 5 minutes. The supernatant was removed. The sediment was dried by vacuum suction. The dried samples were dissolved in about 0.01 to 0.02 ml of DEPC.H2O to obtain the experimental group RNA and control group RNA. Both groups were stored at −80° C.
(§3) The OD value of RNA samples in both groups obtained from the above Experiment I were measured at a wavelength of 260 nm (RNA: OD260=1 for a 40 μg/mL solution). Each RNA sample (2 μl) was added with RNA-free water until the volume of the sample reached 10 μl. Two μl oligo (dT) (100 μg/ml) was added into each sample, and the samples were incubated at 65° C. for 5 minutes. Then, the samples were immediately placed on ice and spun down. Next, 6.5 μl of a reaction solution [4 μl of 5× buffer+1 μl of 0.1 M DTT+1 μl of RNase out+0.5 μl of SSIII (Invitrogen)] was added into each of the samples, and the samples were incubated at 50° C. for about 30 to 60 minutes and at 75° C. for 15 minutes to obtain the experimental group cDNA and control group cDNA. Both groups were stored at −80° C.
(§4) This experiment was used to detect the expression levels of ES cell-related genes, i.e., Oct4 and Sox2, etc. […] The cycle threshold (CT) values were measured.

Oct4 = test: Real-time PCR, Oct4 gene expression in ES cells; conditions: for Oct4 gene expression level: ES cells, control group = 100%
Procedure: as §1, §2, §3, §4

iPS cells = test: AP staining and immunofluorescence staining of the generated iPS cells; conditions: experimental group (T+P), BP10 medium
Procedure: The AP activity of the obtained iPS cells was determined by AP staining. The expression levels of Nanog and SSEA1 as well as the embryoid body formation and differentiation were observed by immunofluorescence staining.

Pou5fl-GFP MEF cells = test: Examination of iPS cell generation efficiency (GFP fluorescence)
Description: The MEF cells were isolated from Pou5fl-GFP transgenic mice (The Jackson lab). The pcDNA-Oct4, pcDNA-Sox2, pcDNA-c-Myc, and pcDNA-Klf4 plasmids were introduced once every two days (4 times total) into the Pou5fl-GFP MEF cells to generate iPS cells through co-transfection. The medium was changed to BP-containing medium 6 days post-transfection, and the medium was exchanged everyday. On day 9, the MEF cells were passaged onto feeder cells provided by Example 1 and the GFP-positive clones were observed. Finally, the GFP fluorescent signals of the iPS cells were detected by a fluorescent microscope. The fluorescent signal intensity is directly proportional to the cell generation efficiency.
This example includes two groups, BP (T+P) and BP (T), wherein BP (T+P) refers to the group cultured with the experimental group medium (BP10) post-transfection and after placing onto feeder cells, and BP (T) refers to the group cultured with the experimental group medium (BP10) post-transfection.

[1] = BP10 medium (about 10 μg BP/ml)
[2] = BP20 medium (about 20 μg BP/ml)
[3] = BP40 medium (about 40 μg BP/ml)
[4] = BP-containing ES cell culture medium vs control group, result in words

CCCC=C1OC(=O)c2ccccc21 [BP, n-butylidenephthalide]
Sox2 gene expression level (Sox2; BP5 medium (about 5 μg BP/ml)): 91%
Sox2 gene expression level (Sox2; [1]): 245%
Sox2 gene expression level (Sox2; [2]): 210%
Sox2 gene expression level (Sox2; [3]): 140%
gene expression level of Sox2 (Sox2; [4]): significantly up-regulated
Oct4 gene expression level (Oct4; BP5 medium (about 5 μg BP/ml)): 119%
Oct4 gene expression level (Oct4; [1]): 419%
Oct4 gene expression level (Oct4; [2]): 258%
Oct4 gene expression level (Oct4; [3]): 144%
gene expression level of Oct4 (Oct4; [4]): significantly up-regulated
expression levels of AP, Nanog and SSEA1 in the obtained iPS cells (iPS cells): higher expression levels of AP, Nanog, and SSEA1
GFP fluorescence intensity in the iPS cells formed (Pou5fl-GFP MEF cells; BP (T): BP10 medium post-transfection, Day 7): 20.5
GFP fluorescence intensity in the iPS cells formed (Pou5fl-GFP MEF cells; BP (T): BP10 medium post-transfection, Day 14): 70.5
GFP fluorescence intensity in the iPS cells formed (Pou5fl-GFP MEF cells; BP (T): BP10 medium post-transfection, Day 20): 65.5
GFP fluorescence intensity in the iPS cells formed (Pou5fl-GFP MEF cells; BP (T+P): BP10 medium post-transfection and after placing onto feeder cells, Day 7): 27.5
GFP fluorescence intensity in the iPS cells formed (Pou5fl-GFP MEF cells; BP (T+P): BP10 medium post-transfection and after placing onto feeder cells, Day 14): 82
GFP fluorescence intensity in the iPS cells formed (Pou5fl-GFP MEF cells; BP (T+P): BP10 medium post-transfection and after placing onto feeder cells, Day 20): 92.5
GFP fluorescent signals (iPS cell generation efficiency) (Pou5fl-GFP MEF cells; BP-containing iPS cell medium vs control group (without BP), result in words): higher GFP fluorescent signals
